In EP0367974A1, “Cis-complexes with a 1,3-diaminopropane derivative as a ligand, methods for their preparation and pharmaceutical agents containing such complexes” (BEHRINGWERKE Aktiengesellschaft, priority 1988, dated 1990):

Experiments:
L1210-Leukämiezellen = test: Colony formation of L1210 leukaemia cells in soft agar; format: cell-based, Maus; settings: colony number vs untreated control, 7 days at 37° C; 1 h incubation or continuous exposure not specified
Source text: Die Bestimmung der zytostatischen Wirksamkeit der hier beschriebenen Verbindungen erfolgte an L1210-Leukämiezellen der Maus. Im einzelnen wurden folgende Testsysteme verwendet:
Diese Methode dient zum Nachweis eines Einflusses der Testsubstanzen auf das Wachstumsverhalten der Zellen über mehrere Generationen (bei einer Zellzykluszeit von 10 - 12 Stunden werden in der Testzeit von 7 Tagen etwa 14 aufeinanderfolgende Generationen beobachtet). Zytostatisch wirksame Substanzen bewirken in diesem Test eine Reduktion der zu beobachtenden Koloniezahl gegenüber einer unbehandelten Kontrolle. Im einzelnen wird der Test wie folgt durchgeführt: Leukämiezellen werden mit unterschiedlichen Konzentrationen von Testsubstanz 1 Stunde bei 37° C inkubiert.
Anschließend werden die Zellen zweimal mit McCoy5A-Medium gewaschen und schließlich in Petrischalen nach Zusatz von 0.3 % Agar ausgegossen (500 Zellen/Platte). Kontrollen werden lediglich mit frischem Medium inkubiert. Anstelle der einstündigen Inkubation werden in manchen Fällen unterschiedliche Konzentrationen und Testsubstanz der oberen Agarschicht zugemischt, um so eine kontinuierliche Exposition der Zellen über die gesamte Inkubationszeit zu erreichen. Nach Erstarren des Agars werden die Platten im Brutschrank 7 Tage bei 37° C inkubiert ( 5 Vol-% CO₂, 95 % relative Luftfeuch tigkeit). Anschließend wird die Anzahl der entstandenen Kolonien mit einem Durchmesser von mehr als 60 µ gezählt. Die Ergebnisse werden angegeben als Koloniezahl in behandelten Agarplatten, in Prozent der unbehandelten Kontrolle. Aus der so erhalten Dosiswirkungskurve wird die IC₅₀ als Maß für die Wirksamkeit der Substanz ermittelt.

NMRI-Mäusen = test: Acute toxicity in mice (LD50, Litchfield-Wilcoxon); format: in vivo, Maus; settings: 3 x i.p.; survivors counted day 14 after last injection
Procedure: Zur Ermittlung der akuten Toxizität werden NMRI-Mäusen am Tag 0 unterschiedliche Dosen der Testsubstanz gelöst in 0.5 ml 5 %iger Glucose-Lösung, intraperitoneal injiziert. Kontrollgruppen erhalten lediglich 0.5 ml 5 %ige Glucose-Lösung. Pro Konzentration der Testsubstanz werden 5 Mäuse verwendet. Am Tag 14 nach der letzten Injektion wird die Zahl der überlebenden Mäuse ermittelt und daraus nach der Lichtfield Wilcoxon Methode die LD5, LD50 und LD95 ermittelt.

L1210 Leukämie der Maus = test: In vivo efficacy of the platinum complexes against L1210 leukaemia of the mouse; set-up: opt. Dose: unit not given here; settings: for LTS (Long Term Survivor): animals alive on day 60 (cured) per group of 6, at optimal dose, 3 x i.p./i.p.; for opt. Dose: dose with the greatest antitumoural effect, schedule 3 x i.p./i.p.; for T/C % L1210: treatment schedule 3 x i.p./i.p., mean survival time vs control at optimal dose
Procedure: Ascitesflüssigkeit wird unter sterilen Bedingungen DBA2 Mäusen (weiblich, 18 - 20 g) 7 Tage nach Implantation entnommen. Der Ascites wird dreimal mit PBS gewaschen, gezählt und auf eine Zellzahl von 10⁶ in 0.2 ml PBS eingestellt. 10⁶ Zellen, suspendiert in 0.2 ml PBS, werden anschlie-ßend DBF1 Mäusen (weiblich, 18 - 20 g) intraperitoneal injiziert. 6 Tiere pro Gruppe werden für jede Substanz konzentration bzw. als Kontrolle eingesetzt.
• a) Die Tiere werden am Tag 1 und 5 nach Injektion der Testsubstanz gewogen.
Die Dosis, die den größten antitumoralen Effekt (optimale Dosierung) sowie jeweils eine Dosisstufe oberhalb und unterhalb dieser Dosis wurden angegeben. Tiere, die am Tag 60 des Experimentes noch leben, werden als geheilt zusätzlich getrennt aufgeführt.

Row | Compound | IC₅₀ (L1210-Leukämiezellen) | LD₅₀ (NMRI-Mäusen) | LTS (Long Term Survivor) (L1210 Leukämie der Maus) | opt. Dose (L1210 Leukämie der Maus) | T/C % L1210 (L1210 Leukämie der Maus)
1 | CCC(CN)(CN)COC.COC1C(=O)[O][Pt][O]C1=O [Verbindung 9, 1,3-Diamino-2-ethyl-2-methoxymethyl-propan-N,N′-platin(II)-O,O′-2-methoxymalonat] | 2.35 µg/mL | 60 mg/kg | 3/6 | 16 | 306%
2 | CCC(CN)(CN)COC.O=C1[O][Pt][O]C(=O)C12CC2 [Verbindung 1, 1,3-Diamino-2-ethyl-2-methoxymethyl-propan-N,N′-platin(II)-O,O′-cyclopropan-1,1-dicarboxylat] | 5.0 µg/mL | 90 to 120 mg/kg | 6/6 | 50 | 450%
3 | CCC(CN)(CN)COC.O=C1C[O][Pt][O]1 [Verbindung 16, 1,3-Diamino-2-ethyl-2-methoxymethyl-propan-N,N′-platin(II)-O,O′-2-hydroxy-acetat] | 1.2 µg/mL | – | 4/6 | 15.8 | 361%
4 | N.N.[Cl][Pt][Cl] [Cisplatin, reference compound] | 0.04 µg/mL | – | – | 4 | 157%
5 | COCC(C)(CN)CN.O=C([O-])C1(C(=O)[O-])CC1.[Pt+2] [Verbindung 2, 1,3-Diamino-2-methoxymethyl-2-methyl-propan-N,N′-platin(II)-O,O′-cyclopropan-1,1-dicarboxylat] | 4.2 µg/mL | – | – | – | –
6 | CCC(CN)(CN)COC.CCC1(C)[O][Pt][O]C1=O [Verbindung 22, 1,3-Diamino-2-ethyl-2-methoxymethyl-propan-N,N′-platin(II)-O,O′-(2-hydroxy-2-methyl)-butyrat] | 2.9 µg/mL | 90 to 180 mg/kg | – | – | –
7 | COCC(C)(CN)CN.O=C1C[O][Pt][O]1 [Verbindung 17, 1,3-Diamino-2-methoxymethyl-2-methyl-propan-N,N′-platin(II)-O,O′-2-hydroxy-acetat] | 1.8 µg/mL | – | 1/6 | 9.5 | 225%
